What was measured:
[1] = test system: NCl-H460 non-small cell lung cancer cells; assay: Alamar Blue cell viability assay, anti-proliferative/cytotoxic activity; type: cell-based; conditions: 72 hours incubation, one range stated for all listed Examples, read-out: −log IC50 NCl-H460 (converted)
Method: The anti-proliferative/cytotoxic activity of the compounds described herein, can be tested on NCl-H460 non-small cell lung cancer cells using the Alamar Blue cell viability assay (described in O'Brien et al. Eur J Biochem 267, 5421-5426, 2000). The compounds are dissolved as 20 mM solutions in dimethylsulfoxide (DMSO) and subsequently diluted in semi-logarithmic steps. DMSO dilutions are further diluted 1:100 into Dulbecco's modified Eagle's medium (DMEM) containing 10% fetal calf serum to a final concentration twice as much as the final concentration in the test. NCl-460 cells are seeded into 96 well flat bottom plates at a density of 4000 cells per well in a volume of 50 μl per well. 24 hours after seeding the 50 μl each of the compound dilutions in DMEM medium are added into each well of the 96 Well plate. Each compound dilution is tested as quadruplicates. Wells containing untreated control cells are filled with 50 μl DMEM medium containing 1% DMSO. The cells are then incubated with the substances for 72 hours at 37° C. In a humified atmosphere containing 5% carbon dioxide. To determine the viability of the cells, 10 μl of an Alamar Blue solution (Biosource) are added and the fluorescence is measured at an extinction of 544 nm and an emission of 590 nm. For the calculation of cell viability the emission value from untreated cells is set to 100% viability and the emission rates of treated cells are set in relation to the values of untreated cells. Viabilities are expressed as % values.
The corresponding IC50 values of the compounds for anti-proliferative/cytotoxic activity are determined from the concentration-effect curves.
Representative advantageous IC50 values for anti-proliferation/cytotoxicity determined for the compounds mentioned and numbered as Examples in the examples above follow from the following table A, in which the numbers of the compound correspond to the numbers of the examples.

| melting point [°C] | SMILES | IC50 [1] [µM] |
| --- | --- | --- |
| 107 to 110 | CCOC(=O)c1c(-c2cccc(N(C)C)c2)c(C)n2c1-c1cc(OC(F)F)c(OC)cc1CC2 [Example 4, 9-(1,1-Difluoro-methoxy)-2-(3-dimethylamino-phenyl)-8-methoxy-3-methyl-5,6-dihydro-pyrrolo[2,1-a]isoquinoline-1-carboxylic acid ethyl ester] | 0.398 to 3.16 |
| 152 to 155 | CCOC(=O)c1c(-c2cc(C)c(O)c(C)c2)c(C)n2c1-c1cc(OC(F)F)c(OC)cc1CC2 [Example 5, 9-(1,1-Difluoro-methoxy)-2-(4-hydroxy-3,5-dimethyl-phenyl)-8-methoxy-3-methyl-5,6-dihydro-pyrrolo[2,1-a]isoquinoline-1-carboxylic acid ethyl ester] | 0.398 to 3.16 |
| 246 to 251 | CCOC(=O)c1c(-c2cc(C)c(O)c(C)c2)c(C)n2c1-c1c(cc(OC)c(OC)c1OC)CC2 [Example 7, 2-(4-Hydroxy-3,5-dimethyl-phenyl)-8,9,10-trimethoxy-3-methyl-5,6-dihydro-pyrrolo[2,1-a]isoquinoline-1-carboxylic acid ethyl ester] | – |
| 155 | CCOC(=O)c1c(-c2cc(OC)c(OC)c(OC)c2)c(C)n2c1-c1cc(OC)c(OC(F)F)cc1CC2 [Example 8, 8-(1,1-Difluoro-methoxy)-9-methoxy-3-methyl-2-(3,4,5-trimethoxy-phenyl)-5,6-dihydro-pyrrolo[2,1-a]isoquinoline-1-carboxylic acid ethyl ester] | – |
| 126 to 128 | CCOC(=O)c1c(-c2cc(C)c(O)c(C)c2)c(C)n2c1-c1cc(OC)c(OC(F)F)cc1CC2 [Example 9, 8-(1,1-Difluoro-methoxy)-2-(4-hydroxy-3,5-dimethyl-phenyl)-9-methoxy-3-methyl-5,6-dihydro-pyrrolo[2,1-a]isoquinoline-1-carboxylic acid ethyl ester] | 0.398 to 3.16 |
| 167 to 169 | CCOC(=O)c1c(-c2cc(C)c(O)c(C)c2)c(C)n2c1-c1cc(OC)c(Cl)cc1CC2 [Example 17, 8-Chloro-2-(4-hydroxy-3,5-dimethyl-phenyl)-9-methoxy-3-methyl-5,6-dihydro-pyrrolo[2,1-a]isoquinoline-1-carboxylic acid ethyl ester] | – |
| 169 to 171 | CCOC(=O)c1c(-c2cc(C)c(O)c(C)c2)c(C)n2c1-c1cc(OC)c(OCCOC)cc1CC2 [Example 18, 2-(4-Hydroxy-3,5-dimethyl-phenyl)-9-methoxy-8-(2-methoxy-ethoxy)-3-methyl-5,6-dihydro-pyrrolo[2,1-a]isoquinoline-1-carboxylic acid ethyl ester] | 0.398 to 3.16 |
| 209 to 211 | CCOC(=O)c1c(-c2cc(C)c(O)c(C)c2)c(C)n2c1-c1cc([N+](=O)[O-])c(OC)cc1CC2 [Example 22, 2-(4-Hydroxy-3,5-dimethyl-phenyl)-8-methoxy-3-methyl-9-nitro-5,6-dihydro-pyrrolo[2,1-a]isoquinoline-1-carboxylic acid ethyl ester] | 0.398 to 3.16 |
| 179 to 181 | CCOC(=O)c1c(-c2cc(C)c(O)c(C)c2)c(C)n2c1-c1cc(C)c(OC)cc1CC2 [Example 23, 2-(4-Hydroxy-3,5-dimethyl-phenyl)-8-methoxy-3,9-dimethyl-5,6-dihydro-pyrrolo[2,1-a]isoquinoline-1-carboxylic acid ethyl ester] | – |
| 259 to 261 | COc1cc2c(cc1OC)-c1c(C(=O)N(C)C)c(-c3cc(C)c(O)c(C)c3)c(C)n1CC2 [Example 31, 2-(4-Hydroxy-3,5-dimethyl-phenyl)-8,9-dimethoxy-3-methyl-5,6-dihydro-pyrrolo[2,1-a]isoquinoline-1-carboxylic acid dimethylamide] | – |
| 281 to 283 | CNC(=O)c1c(-c2cc(C)c(O)c(C)c2)c(C)n2c1-c1cc(OC)c(OC)cc1CC2 [Example 32, 2-(4-Hydroxy-3,5-dimethyl-phenyl)-8,9-dimethoxy-3-methyl-5,6-dihydro-pyrrolo[2,1-a]isoquinoline-1-carboxylic acid methylamide] | – |
| 229 to 231 | COc1cc2c(cc1OC)-c1c(C(N)=O)c(-c3cc(C)c(O)c(C)c3)c(C)n1CC2 [Example 33, 2-(4-Hydroxy-3,5-dimethyl-phenyl)-8,9-dimethoxy-3-methyl-5,6-dihydro-pyrrolo[2,1-a]isoquinoline-1-carboxylic acid amide] | – |
| 242 to 244 | CCNC(=O)c1c(-c2cc(C)c(O)c(C)c2)c(C)n2c1-c1cc(OC)c(OC)cc1CC2 [Example 35, 2-(4-Hydroxy-3,5-dimethyl-phenyl)-8,9-dimethoxy-3-methyl-5,6-dihydro-pyrrolo[2,1-a]isoquinoline-1-carboxylic acid ethylamide] | – |
| 254 to 256 | COc1cc2c(cc1OC)-c1c(C(=O)NC3CC3)c(-c3cc(C)c(O)c(C)c3)c(C)n1CC2 [Example 37, 2-(4-Hydroxy-3,5-dimethyl-phenyl)-8,9-dimethoxy-3-methyl-5,6-dihydro-pyrrolo[2,1-a]isoquinoline-1-carboxylic acid cyclopropylamide] | – |

More lines, now with the values behind:

| SMILES | melting point [°C] | IC50 [1] [µM] |
| --- | --- | --- |
| CCOC(=O)c1c(-c2cc(C)c(O)c(C)c2)c(C)n2c1-c1cc(OC)c(OC)cc1C(C)C2 (racemic) [Example 2, (6RS)-2-(4-Hydroxy-3,5-dimethyl-phenyl)-8,9-dimethoxy-3,6-dimethyl-5,6-dihydro-pyrrolo[2,1-a]isoquinoline-1-carboxylic acid ethyl ester] | – | 0.398 to 3.16 |
| CCOC(=O)c1c(-c2cc(C)c(O)c(C)c2)c(C)n2c1-c1cc(OC)c(OC)cc1C(C)(C)C2 [Example 1, 2-(4-hydroxy-3,5-dimethyl-phenyl)-8,9-dimethoxy-3,6,6-trimethyl-5,6-dihydro-pyrrolo[2,1-a]isoquinoline-1-carboxylic acid ethyl ester] | 200 to 202 | 0.398 to 3.16 |
| CCOC(=O)c1c(-c2cccc(N(C)C)c2)c(C)n2c1-c1cc(OC)c(OC(F)F)cc1CC2 [Example 10, 8-(1,1-Difluoro-methoxy)-2-(3-dimethylamino-phenyl)-9-methoxy-3-methyl-5,6-dihydro-pyrrolo[2,1-a]isoquinoline-1-carboxylic acid ethyl ester] | – | 0.398 to 3.16 |
| CCOC(=O)c1c(-c2cc(OC)c(OC)c(OC)c2)c(C)n2c1-c1cc(Cl)c(OC)cc1CC2 [Example 15, 9-Chloro-8-methoxy-3-methyl-2-(3,4,5-trimethoxy-phenyl)-5,6-dihydro-pyrrolo[2,1-a]isoquinoline-1-carboxylic acid ethyl ester] | 172 to 174 | – |
| CCOC(=O)c1c(-c2cccc(N(C)C)c2)c(C)n2c1-c1cc(Cl)c(OC)cc1CC2 [Example 16, 9-Chloro-2-(3-dimethylamino-phenyl)-8-methoxy-3-methyl-5,6-dihydro-pyrrolo[2,1-a]isoquinoline-1-carboxylic acid ethyl ester] | – | 0.398 to 3.16 |
| CCOC(=O)c1c(-c2cc(OC)c(OC)c(OC)c2)c(C)n2c1-c1cc(OC)c(OCCOC)cc1CC2 [Example 19, 9-Methoxy-8-(2-methoxy-ethoxy)-3-methyl-2-(3,4,5-trimethoxy-phenyl)-5,6-dihydro-pyrrolo[2,1-a]isoquinoline-1-carboxylic acid ethyl ester] | 152 to 154 | – |
| CCOC(=O)c1c(-c2cccc3ccccc23)c(C)n2c1-c1cc(OC)c(OCCOC)cc1CC2 [Example 20, 9-Methoxy-8-(2-methoxy-ethoxy)-3-methyl-2-naphthalen-1-yl-5,6-dihydro-pyrrolo[2,1-a]isoquinoline-1-carboxylic acid ethyl ester] | 126 to 128 | 0.398 to 3.16 |
| CCOC(=O)c1c(-c2cc(C)c(O)c(C)c2)c(C)n2c1-c1cc(F)c(OC)cc1CC2 [Example 21, 9-Fluoro-2-(4-hydroxy-3,5-dimethyl-phenyl)-8-methoxy-3-methyl-5,6-dihydro-pyrrolo[2,1-a]isoquinoline-1-carboxylic acid ethyl ester] | – | 0.398 to 3.16 |
| COc1cc2c(cc1OC)-c1c(C(=O)c3ccccc3)c(-c3cc(C)c(O)c(C)c3)c(C)n1CC2 [Example 26, 1-[2-(4-hydroxy-3,5-dimethyl-phenyl)-8,9-dimethoxy-3-methyl-5,6-dihydro-pyrrolo[2,1-a]isoquinolin-1-yl]-1-phenyl-methanone] | 194 to 196 | – |
| COc1cc2c(cc1OC)-c1c(-c3ccccc3)c(-c3cc(C)c(O)c(C)c3)c(C)n1CC2 [Example 27, 4-(8,9-Dimethoxy-3-methyl-1-phenyl-5,6-dihydro-pyrrolo[2,1-a]isoquinolin-2-yl)-2,6-dimethyl-phenol] | 210 to 214 | – |
| COc1cc2c(cc1OC)-c1c(C(=O)NC(C)C)c(-c3cc(C)c(O)c(C)c3)c(C)n1CC2 [Example 30, 2-(4-Hydroxy-3,5-dimethyl-phenyl)-8,9-dimethoxy-3-methyl-5,6-dihydro-pyrrolo[2,1-a]isoquinoline-1-carboxylic acid isopropylamide] | – | 0.398 to 3.16 |

From patent US20060148838A1, “Novel pyrrolodihydroisoquinolines useful in the treatment of cancer” (Altana Pharma AG, priority 2003, published 2006)
